Measured values as given in US20260217708A1, “FUSED BENZAZEPINE DERIVATIVES FOR USE IN THE TREATMENT OF CANCER AND EPILEPSY” (UCB BIOPHARMA SRL, priority 2023, published 2026).

Experiments:
system Xc^− [1] = biological target: T1, system Xc^− (Homo sapiens, UniProt Q9UPY5); assay: [^14C]L-Cystine uptake assay; format: cell-based; set-up: endogenous in cells; host or cells: H4 cells; conditions: H4 cells, sodium-free HEPES buffer, 0.5 μM L-[14C]Cystine and 4.5 μM L-Cystine, 1 hour at 37° C.; for IC50: read-out: pIC50 [^14C] L-Cystine uptake assay (converted)
T1 sequence (Q9UPY5 1-501): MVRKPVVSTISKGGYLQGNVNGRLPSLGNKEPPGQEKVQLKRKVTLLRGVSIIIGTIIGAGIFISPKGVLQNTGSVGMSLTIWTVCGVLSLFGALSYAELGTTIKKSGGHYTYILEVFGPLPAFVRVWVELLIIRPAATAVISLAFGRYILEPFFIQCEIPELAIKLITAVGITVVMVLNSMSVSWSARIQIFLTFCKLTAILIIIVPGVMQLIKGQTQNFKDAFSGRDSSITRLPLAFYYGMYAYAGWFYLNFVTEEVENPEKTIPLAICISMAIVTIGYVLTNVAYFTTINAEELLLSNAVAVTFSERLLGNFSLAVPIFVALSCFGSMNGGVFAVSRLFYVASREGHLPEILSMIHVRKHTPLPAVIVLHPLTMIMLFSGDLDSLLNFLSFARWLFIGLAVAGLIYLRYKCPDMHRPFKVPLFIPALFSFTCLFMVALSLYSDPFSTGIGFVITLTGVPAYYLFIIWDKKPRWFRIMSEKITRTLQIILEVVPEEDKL
T1 sequence (P08195 1-529 partner): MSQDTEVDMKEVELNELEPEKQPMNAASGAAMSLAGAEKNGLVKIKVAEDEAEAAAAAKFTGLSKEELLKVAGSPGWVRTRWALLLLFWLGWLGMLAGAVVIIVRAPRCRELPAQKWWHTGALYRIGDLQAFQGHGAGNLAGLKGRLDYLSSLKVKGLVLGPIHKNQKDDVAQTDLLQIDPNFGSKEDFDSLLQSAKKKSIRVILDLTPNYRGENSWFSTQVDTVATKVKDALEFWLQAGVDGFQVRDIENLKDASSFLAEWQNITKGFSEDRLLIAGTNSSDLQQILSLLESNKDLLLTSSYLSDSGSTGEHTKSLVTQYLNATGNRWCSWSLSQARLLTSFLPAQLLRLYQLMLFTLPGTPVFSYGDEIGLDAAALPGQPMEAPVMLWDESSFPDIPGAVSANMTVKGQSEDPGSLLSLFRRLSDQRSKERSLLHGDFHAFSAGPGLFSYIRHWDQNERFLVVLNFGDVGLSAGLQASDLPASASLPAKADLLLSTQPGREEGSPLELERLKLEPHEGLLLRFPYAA
Procedure, shortened: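 Compound effect is given as pIC50, taken between controls of 1% DMSO and 50 μM Erastin. Human H4 cells were pretreated 15 min with compound in sodium-free buffer, then took up 0.5 μM [14C]cystine with 4.5 μM cold cystine for 1 hour at 37° C, read by scintillation proximity counting.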

system Xc^− [2] = biological target: T1, system Xc^−; assay: Cystine-induced glutamate release assay; format: cell-based; set-up: endogenous in cells; host or cells: H4 cells; conditions: H4 cells, sodium-free HEPES buffer, 50 μM L-Cystine, 2 hours, Amplex Red glutamate readout; for IC50: read-out: pIC50 Cystine-induced glutamate release assay (converted)
Procedure, shortened: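 IC50 (reported as pIC50) normalized to DMSO 1% and Erastin 50 μM controls, from Amplex Red fluorescence of glutamate exported into supernatant. H4 cells were washed into sodium-free buffer to exclude EAAT transport, then given compound with 50 μM L-cystine for 2 h in the incubator.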

SMILES	IC50 (system Xc^− [1]) [nM]	IC50 (system Xc^− [2]) [nM]	pIC50 [^14C] L-Cystine uptake assay (system Xc^− [1])	pIC50 Cystine-induced glutamate release assay (system Xc^− [2])
O=C(CN1C(=O)Cc2ccccc2-c2ncc(F)cc21)Nc1ccc(C(F)(F)F)cc1 [#16, 2-(3-fluoro-6-oxo-7H-pyrido[3,2-d] [3]benzazepin-5-yl)-N-[4-(trifluoro-methyl)phenyl] acetamide]	100 to 501	100 to 501		
Cc1cc2c(c(=O)n1C)-c1ccc(Cl)cc1C(C)C(=O)N2CC(=O)Nc1ccc(Cl)c(F)c1 (stereo not shown) [#352, N-(4-chloro-3-fluoro-phenyl)-2-(9-chloro-2,3,7-trimethyl-1,6-dioxo-7H-pyrido[4,3-d][3]benzazepin-5-yl)acetamide]	< 15.8	15.8 to 39.8		
Cc1cc2c(cn1)-c1ccc(Cl)cc1C(C)C(=O)N2CC(=O)Nc1ccc(C(F)F)cc1 (single isomer, unassigned) [#396, 2-[9-chloro-3,7-dimethyl-6-oxo-7H-pyrido[3,4-a][3]benzazenin-5-yl]-N-[4-(difluoromethyl)phenyl]acetamide]	15.8 to 39.8	15.8 to 39.8		
O=C(CN1C(=O)Cn2nccc2-c2cnc(Cl)cc21)Nc1ccc(C(F)(F)F)cc1 [#37, 2-(12-chloro-8-oxo-5,6,9,13-tetrazatricyclo[8.4.0.0^2,6]tetradeca-1(10),2,4,11,13-pentaen-9-yl)-N-[4-(trifluoromethyl)phenyl]acetamide]	100 to 501	100 to 501		
CC1C(=O)N(CC(=O)Nc2ccc(C(F)(F)F)cc2)c2cn(C)c(=O)c(F)c2-c2cccnc21 (single isomer, unassigned) [#184, enantiomer (10R) or (10S) of 2-(3-fluoro-5,10-dimethyl-4,9-dioxo-5,8,12-triazatricyclo[9.4.0.0^2,7]pentadeca-1(11),2,6,12,14-pentaen-8-yl)-N-[4-(trifluoromethyl)phenyl]acetamide]	< 15.8	15.8 to 39.8		
CC1C(=O)N(CC(=O)Nc2ccc(C(F)F)cc2)c2cc(N3CCOCC3)nc(F)c2-c2cccnc21 (stereo not shown) [#271, N-[4-(difluoromethyl)phenyl]-2-(3-fluoro-10-methyl-5-morpholino-9-oxo-4.8,12-triazatricyclo[9.4.0.0^2,7]pentadeca-1(15),2,4,6,11,13-hexaen-8-yl)acetamide]	< 15.8	15.8 to 39.8		
O=C(CN1C(=O)Cc2ccccc2-c2cnc(Cl)cc21)Nc1ccc(C(F)(F)F)cc1 [#13, 2-(3-chloro-6-oxo-7H-pyrido[4,3-d][3]benzazepin-5-yl)-N-[4-(trifluoromethyl)phenyl]acetamide]	39.8 to 100	100 to 501		
COc1cc2c(c(F)n1)-c1cccnc1C(C)C(=O)N2CC(=O)Nc1ccc(C(F)F)cc1 (single isomer, unassigned) [#214, Enantiomer (10S) or (10R) of N-[4-(difluoromethyl)phenyl]-2-[3-fluoro-5-methoxy-10-methyl-9-oxo-4,8,12-triazatricyclo[9.4.0.0^2,7]pentadeca-1(15),2(7),3,5,11,13-hexaen-8-yl]acetamide]			C (about 7.40 < pIC50 ≤ about 7.80)	D (plC50 > about 7.80)
Cc1cc2c(c(F)n1)-c1ccnn1[C@@H](C)C(=O)N2CC(=O)Nc1ccc(C(F)(F)F)cc1 (single isomer, unassigned) [#198, Enantiomer (7R) or (7S) of 2-[14-fluoro-7,12-dimethyl-8-oxo-5,6,9,13-tetrazatricyclo[8.4.0.0^2,6]tetradeca-1(10),2,4,11,13-pentaen-9-yl]-N-[4-(trifluoromethyl)phenyl]acetamide]	39.8 to 100	39.8 to 100		

Now from value to compound:

IC50 (system Xc^− [1]) [nM]	IC50 (system Xc^− [2]) [nM]	pIC50 [^14C] L-Cystine uptake assay (system Xc^− [1])	pIC50 Cystine-induced glutamate release assay (system Xc^− [2])	SMILES
100 to 501	100 to 501			Cc1cc2c(c(F)n1)-c1ncccc1CC(=O)N2CC(=O)Nc1ccc(Cl)c(F)c1 [#41, N-(4-chloro-3-fluoro-phenyl)-2-(15-fluoro-13-methyl-9-oxo-3,10,14-triazatricyclo [9.4.0.0^2,7]pentadeca-1(11),2(7),3,5,12,14-hexaen-10-yl)acetamide]
39.8 to 100	15.8 to 39.8			Cc1cc2c(c(F)n1)-c1cccnc1[C@@H](C)C(=O)N2CC(=O)Nc1csc(Cl)c1 [#243, N-(5-chloro-3-thienyl)-2-[(10R)-3-fluoro-5,10-dimethyl-9-oxo-4,8,12-triazatricyclo[9.4.0.0^2,7]pentadeca-1(11),2(7),3,5,12,14-hexaen-8-yl]acetamide]
39.8 to 100	39.8 to 100			Cc1cc2c(c(F)n1)-c1ccnnc1C(C)C(=O)N2CC(=O)Nc1ccc(C(F)F)cc1 (single isomer, unassigned) [#257, N-[4-(difluoromethyl)phenyl]-2-[3-fluoro-5,10-dimethyl-9-oxo-4,8,12,13-tetrazatricyclo[9.4.0.0^2,7]pentadeca-1(15),2,4,6,11,13-hexaen-8-yl]acetamide]
< 15.8	39.8 to 100			Cc1cc2c(c(Cl)n1)-c1ccccc1CC(=O)N2CC(=O)Nc1ccc(Cl)c(F)c1 [#50, N-(4-chloro-3-fluoro-phenyl)-2-(1-chloro-3-methyl-6-oxo-7H-pyrido[4,3-d][3]benz-azepin-5-yl)acetamide]
39.8 to 100	15.8 to 39.8			Cc1cc2c(c(F)n1)-c1ccc(F)cc1C(C)C(=O)N2CC(=O)Nc1ccc(Cl)c(F)c1 (stereo not shown) [#404, N-(4-chloro-3-fluoro-phenyl)-2-(1,9-difluoro-3,7-dimethyl-6-oxo-7H-pyrido[3,4-a][3]benzazepin-5-yl)acetamide]
< 15.8	< 15.8			CC1C(=O)N(CC(=O)Nc2ccc(Cl)c(F)c2)c2cc(N3CC(F)(F)C3)nc(F)c2-c2cccnc21 (single isomer, unassigned) [#268, N-(4-chloro-3-fluoro-phenyl)-2-[5-(3,3-difluoroazetidin-1-yl)-3-fluoro-10-methyl-9-oxo-4,8,12-triazatricyclo[9.4.0.0^2,7]pentadeca-1(15),2,4,6,11,13-hexaen-8-yl]acetamide]
15.8 to 39.8	15.8 to 39.8			Cc1cc2c(c(F)n1)-c1ccccc1CC(=O)N2CC(=O)Nc1ccc(C(F)(F)F)cc1 [#39, 2-(1-fluoro-3-methyl-6-oxo-7H-pyrido[4,3-d][3]benzazepin-5-yl)-N-[4-(trifluorometh-yl)phenyl]acetamide]
100 to 501	39.8 to 100			Cc1cc2c(c(F)n1)-c1cccnc1[C@@H](C)C(=O)N2CC(=O)Nc1ccc(C2CC2(F)F)cc1 (single isomer, unassigned) [#146]
100 to 501	100 to 501			O=C(CN1C(=O)Cc2cccnc2-c2cnc(Cl)cc21)Nc1ccc(Br)c(Cl)c1 [#19, N-(4-bromo-3-chloro-phenyl)-2-(13-chloro-9-oxo-3,10,14-triazatricyclo[9.4.0.0^2,7]pentadeca-1(11),2(7),3,5,12,14-hexaen-10-yl)acetamide]
39.8 to 100	100 to 501			Cc1cc2c(cn1)-c1ccc(F)cc1CC(=O)N2CC(=O)Nc1ccc(C(F)(F)F)cc1 [#34, 2-(9-fluoro-3-methyl-6-oxo-7H-pyrido[4,3-d][3]benzazepin-5-yl)-N-[4-(trifluoro-methyl)phenyl] acetamide]
< 15.8	39.8 to 100			[2H]C([2H])([2H])C1C(=O)N(CC(=O)Nc2ccc(C(F)(F)F)cc2)c2cc(C)nc(F)c2-c2cccnc21 (stereo not shown) [#92, 2-[3-fluoro-5-methyl-9-oxo-10-(trideuteriomethyl)-4,8,12-triazatricyclo[9.4.0.0^2,7]pentadeca-1(15),2(7),3,5,11,13-hexaen-8-yl]-N-[4-(trifluoromethyl)phenyl]acetamide]
